Read-outs that look alike come from different tables or passages of the source.
How the values were obtained:
[1] = system: NF-kB reporter in Jurkat cells; test: NF-kB reporter assay in Jurkat cells stimulated with aCD3/aCD28/PMA; assay type: cell-based; conditions: read-out: NF-kB Reporter Assay IC50
Procedure, shortened: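 Jurkat cells (25,000/well, serum-free RPMI) were pre-incubated 1 h at 37° C with serially diluted compound, then stimulated 4 h with aCD3/aCD28/PMA at final […]. NF-kB reporter activity was read by One-Glo luminescence; IC50 values reported.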

Avi-tagged FL MALT-1 = Avi-tagged FL MALT-1 (Homo sapiens (Human), UniProt Q9UDY8); test: MALT-1 Fluorogenic Peptide Cleavage Assay (MALT1 inhibition assay); assay type: biochemical; conditions: Ac-LRSR-AMC peptide substrate, 30 min pre-incubation, 90 min reaction at room temperature
Sequence of Avi-tagged FL MALT-1 (Q9UDY8 whole entry): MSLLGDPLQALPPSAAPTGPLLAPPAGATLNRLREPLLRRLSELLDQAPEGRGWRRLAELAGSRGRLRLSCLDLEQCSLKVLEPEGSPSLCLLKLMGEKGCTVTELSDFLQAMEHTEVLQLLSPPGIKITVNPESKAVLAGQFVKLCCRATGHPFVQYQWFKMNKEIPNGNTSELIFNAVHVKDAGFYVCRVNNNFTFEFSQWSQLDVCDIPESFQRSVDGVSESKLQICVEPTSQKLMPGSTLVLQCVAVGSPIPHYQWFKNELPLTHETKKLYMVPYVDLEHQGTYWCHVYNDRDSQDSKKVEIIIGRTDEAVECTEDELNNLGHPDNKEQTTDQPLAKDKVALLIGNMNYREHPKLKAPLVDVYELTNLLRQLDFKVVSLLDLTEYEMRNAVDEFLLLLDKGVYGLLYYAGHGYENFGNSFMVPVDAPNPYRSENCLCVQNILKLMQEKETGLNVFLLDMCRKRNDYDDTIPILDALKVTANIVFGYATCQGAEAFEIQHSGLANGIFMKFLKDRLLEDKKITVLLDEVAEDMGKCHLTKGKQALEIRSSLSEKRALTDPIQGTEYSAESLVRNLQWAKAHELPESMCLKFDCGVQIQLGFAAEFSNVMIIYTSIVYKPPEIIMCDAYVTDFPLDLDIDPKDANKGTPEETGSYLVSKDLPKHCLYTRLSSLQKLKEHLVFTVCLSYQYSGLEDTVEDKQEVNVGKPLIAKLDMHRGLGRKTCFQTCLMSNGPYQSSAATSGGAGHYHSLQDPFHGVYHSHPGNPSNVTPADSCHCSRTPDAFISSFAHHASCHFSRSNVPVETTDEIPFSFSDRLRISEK
Procedure, shortened: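 Full-length Avi-tagged human MALT-1 (40 nM working stock) pre-incubated 30 min at RT with compound in 25 mM HEPES pH 6.89, 660 mM sodium citrate, 1 mM TCEP, […], 0.05% CHAPS, 2% DMSO. Ac-LRSR-AMC added at Km (50 μM working stock) or 10×Km (280 μM working stock); 90 min at RT, AMC fluorescence (ex 342/em 441 nm), IC50 from % inhibition curves.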

[2] = Homo sapiens, Jurkat cells, 1 hr compound pre-incubation, aCD3/aCD28/PMA stimulation 4 hr, One-Glo readout
[3] = Jurkat cells, 1 hr compound pre-incubation, aCD3/aCD28/PMA stimulation 4 hr, One-Glo readout

| IC50 [1, 2] | IC50 (Avi-tagged FL MALT-1) | IC50 [1, 3] | SMILES | IC50 ([1]; Homo sapiens, Jurkat) |
| --- | --- | --- | --- | --- |
| < 400 nM | ≤ 400 nM |  | COc1ncc2cnn(C)c2c1NS(=O)(=O)c1cnn(-c2cc(C3(F)COC3)ccn2)c1 [Compound I-124, 1-(4-(3-fluorooxetan-3-yl)pyridin-2-yl)-N-(6-methoxy-1-methyl-1H-pyrazolo[4,3-c]pyridin-7-yl)-1H-pyrazole-4-sulfonamide] |  |
| < 400 nM | ≤ 400 nM |  | COc1ncc2cnn(C)c2c1NS(=O)(=O)c1cnn(-c2cc(C3(OC)COC3)ccn2)c1 [Compound I-125, N-{6-methoxy-1-methylpyrazolo [4,3-c]pyridin-7-yl}-1-[4-(3-methoxyoxetan-3-yl)pyridin-2-yl]pyrazole-4-sulfonamide] |  |
| < 400 nM | ≤ 400 nM |  | COc1ncc2cnn(C)c2c1NS(=O)(=O)c1cnn(-c2cc(C(F)F)ccn2)c1 [Compound I-126, 1-[4-(difluoromethyl)pyridin-2-yl]-N-{6-methoxy-1-methylpyrazolo[4,3-c]pyridin-7-yl}pyrazole-4-sulfonamide] |  |
| < 400 nM | ≤ 400 nM |  | COc1ncc2cnn(C)c2c1NS(=O)(=O)c1cnn(-c2cc(C(C)(C)C)ccn2)c1 [Compound I-127, 1-(4-(tert-butyl)pyridin-2-yl)-N-(6-methoxy-1-methyl-1H-pyrazolo[4,3-c]pyridin-7-yl)-1H-pyrazole-4-sulfonamide] |  |
| < 400 nM | > 2500 nM |  | Cn1ncc2cccc(NS(=O)(=O)c3cnn(-c4cc(C5(O)CCOC5)ccn4)c3)c21 (stereo not shown) [Compound I-128, 1-(4-(3-hydroxytetrahydrofuran-3-yl)pyridin-2-yl)-N-(1-methyl-1H-indazol-7-yl)-1H-pyrazole-4-sulfonamide] |  |
| 400 to 1000 nM | > 2500 nM |  | Cn1ncc2cccc(NS(=O)(=O)c3cnn(-c4cc(C5(O)CCOCC5)ccn4)c3)c21 [Compound I-129, 1-(4-(4-hydroxytetrahydro-2H-pyran-4-yl)pyridin-2-yl)-N-(1-methyl-1H-indazol-7-yl)-1H-pyrazole-4-sulfonamide] |  |
| < 400 nM | > 2500 nM |  | Cn1ncc2cccc(NS(=O)(=O)c3cnn(-c4cc(C5(F)CCOCC5)ccn4)c3)c21 [Compound I-130, 1-(4-(4-fluorotetrahydro-2H-pyran-4-yl)pyridin-2-yl)-N-(1-methyl-1H-indazol-7-yl)-1H-pyrazole-4-sulfonamide] |  |
| < 400 nM | > 2500 nM |  | COC1(c2ccnc(-n3cc(S(=O)(=O)Nc4cccc5cnn(C)c45)cn3)c2)CCOCC1 [Compound I-131, 1-(4-(4-methoxytetrahydro-2H-pyran-4-yl)pyridin-2-yl)-N-(1-methyl-1H-indazol-7-yl)-1H-pyrazole-4-sulfonamide] |  |
| < 400 nM | ≤ 400 nM |  | COc1ccc2cnn(C)c2c1NS(=O)(=O)c1cnn(-c2cc(C(F)F)ccn2)c1 [Compound I-133, 1-(4-(Difluoromethyl)Pyridin-2-yl)-N-(6-Methoxy-1-Methyl-1H-Indazol-7-yl)-1H-Pyrazole-4-Sulfonamide] |  |
| < 400 nM | 400 to 1000 nM |  | COc1ccc2cnn(C)c2c1NS(=O)(=O)c1cnn(-c2cc(C(C)O)ccn2)c1 (stereo not shown) [Compound I-134, 1-(4-(1-hydroxyethyl)pyridin-2-yl)-N-(6-methoxy-1-methyl-1H-indazol-7-yl)-1H-pyrazole-4-sulfonamide] |  |
| < 400 nM | 400 to 1000 nM |  | COc1ccc2cnn(C)c2c1NS(=O)(=O)c1cnn(-c2cc(C(C)(C)O)ccn2)c1 [Compound I-135, 1-(4-(2-hydroxypropan-2-yl)pyridin-2-yl)-N-(6-methoxy-1-methyl-1H-indazol-7-yl)-1H-pyrazole-4-sulfonamide] |  |
| 400 to 1000 nM | 400 to 1000 nM |  | Cn1ncc2ccc(F)c(NS(=O)(=O)c3cnn(-c4cc(C(F)(F)F)ccn4)c3)c21 [Compound I-136, N-(6-fluoro-1-methyl-1H-indazol-7-yl)-1-(4-(trifluoromethyl)pyridin-2-yl)-1H-pyrazole-4-sulfonamide] |  |
| < 400 nM | 400 to 1000 nM |  | Cc1c(S(=O)(=O)Nc2cccc3cnn(C)c23)cnn1-c1cc(C(F)(F)F)ccn1 [Compound I-137, 5-methyl-N-(1-methyl-1H-indazol-7-yl)-1-(4-(trifluoromethyl)pyridin-2-yl)-1H-pyrazole-4-sulfonamide] |  |
| < 400 nM | > 2500 nM |  | COC1(c2ccnc(-n3cc(S(=O)(=O)Nc4cccc5cnn(C)c45)cn3)c2)CC(F)(F)C1 [Compound I-138, 1-(4-(3,3-difluoro-1-methoxycyclobutyl)pyridin-2-yl)-N-(1-methyl-1H-indazol-7-yl)-1H-pyrazole-4-sulfonamide] |  |
| < 400 nM | > 2500 nM |  | Cn1nc(F)c2cccc(NS(=O)(=O)c3cnn(-c4cc(C(C)(F)F)ccn4)c3)c21 [Compound I-139, 1-(4-(1,1-Difluoroethyl)Pyridin-2-yl)-N-(3-FLUORO-1-Methyl-1H-Indazol-7-yl)-1H-Pyrazole-4-Sulfonamide] |  |
| < 400 nM | ≤ 400 nM |  | COc1ncc2cnn(C)c2c1NS(=O)(=O)c1cnn(-c2cc(C(C)(F)F)ccn2)c1 [Compound I-141, 1-(4-(1,1-Difluoroethyl)Pyridin-2-yl)-N-(6-Methoxy-1-Methyl-1H-Pyrazolo[4,3-C]Pyridin-7-yl)-1H-Pyrazole-4-Sulfonamide] |  |
| < 400 nM | 400 to 1000 nM |  | COc1ccc2cnn(C)c2c1NS(=O)(=O)c1cnn(-c2cc(C3(OC)CC(C)C3)ccn2)c1 (stereo not shown) [Compound I-142, N-(6-methoxy-1-methyl-1H-indazol-7-yl)-1-(4-(1-methoxy-3-methylcyclobutyl)pyridin-2-yl)-1H-pyrazole-4-sulfonamide] |  |
| < 400 nM | 1000 to 2500 nM |  | COc1ccc2cnn(C)c2c1NS(=O)(=O)c1cnn(-c2cc(C3(O)CC(C)C3)ccn2)c1 (stereo not shown) [Compound I-143, 1-(4-(1-hydroxy-3-methylcyclobutyl)pyridin-2-yl)-N-(6-methoxy-1-methyl-1H-indazol-7-yl)-1H-pyrazole-4-sulfonamide] |  |
| < 400 nM | > 2500 nM |  | COc1ccnc(-n2cc(S(=O)(=O)Nc3cccc4cnn(C)c34)cn2)c1 [Compound I-146, 1-(4-methoxypyridin-2-yl)-N-(1-methylindazol-7-yl)pyrazole-4-sulfonamide] |  |
| > 2500 nM | > 2500 nM |  | O=S(=O)(Nc1cccc2cnn(C(F)F)c12)c1cnn(-c2cc(C(F)(F)F)ccn2)c1 [Compound I-239] |  |
| < 400 nM | > 2500 nM |  | Cc1n[nH]c2cccc(NS(=O)(=O)c3cnn(-c4cc(C5(F)COC5)ccn4)c3)c12 [Compound I-240, 1-[4-(3-fluorooxetan-3-yl)pyridin-2-yl]-N-(3-methyl-1H-indazol-4-yl)pyrazole-4-sulfonamide] |  |
| > 2500 nM | > 2500 nM |  | COc1ncc2cnn(C)c2c1NS(=O)(=O)c1cnn(-c2cc(C(F)(F)F)nn2C)c1 [Compound I-241] |  |
| 1000 to 2500 nM | > 2500 nM |  | COc1ccc2cnn(C)c2c1NS(=O)(=O)c1cnn(-c2cc(C(F)(F)F)nn2C)c1 [Compound I-242] |  |
|  | > 2500 nM | 1000 to 2500 nM | Cc1n[nH]c2cccc(NS(=O)(=O)c3cnn(-c4cc(C5(O)COC5)ccn4)c3)c12 [Compound I-243] |  |
| < 400 nM | > 2500 nM |  | COC1(c2ccnc(-n3cc(S(=O)(=O)Nc4cccc5[nH]nc(C)c45)cn3)c2)COC1 [Compound I-244, 1-(4-(3-methoxyoxetan-3-yl)pyridin-2-yl)-N-(3-methyl-1H-indazol-4-yl)-1H-pyrazole-4-sulfonamide] |  |
|  | > 2500 nM | < 400 nM | Cc1n[nH]c2cccc(NS(=O)(=O)c3cnn(-c4cc(C(C)(C)O)ccn4)c3)c12 [Compound I-245] |  |
| < 400 nM | > 2500 nM |  | Cc1n[nH]c2cccc(NS(=O)(=O)c3cnn(-c4cc(C5(O)CCCC5)ccn4)c3)c12 [Compound I-246, 1-[4-(1-hydroxycyclopentyl)pyridin-2-yl]-N-(3-methyl-1H-indazol-4-yl)pyrazole-4-sulfonamide] |  |
| < 400 nM | > 2500 nM |  | Cn1ncc2cccc(NS(=O)(=O)c3cnn(-c4cc(C5(O)CCCC5)ccn4)c3)c21 [Compound I-247, 1-[4-(1-hydroxycyclopentyl)pyridin-2-yl]-N-(1-methylindazol-7-yl) pyrazole-4-sulfonamide] |  |

| SMILES | IC50 [1, 2] | IC50 (Avi-tagged FL MALT-1) | IC50 [1, 3] | IC50 ([1]; Homo sapiens, Jurkat) |
| --- | --- | --- | --- | --- |
| COc1ccc2cnn(C)c2c1NS(=O)(=O)c1cnn(-c2cc(C3(OC)CCC3)ccn2)c1 [Compound I-132, N-(6-Methoxy-1-Methyl-1H-Indazol-7-yl)-1-(4-(1-Methoxycyclobutyl)Pyridin-2-yl)-1H-Pyrazole-4-Sulfonamide] |  | ≤ 400 nM |  | < 400 nM |
| CCC(F)(F)c1ccnc(-n2cc(S(=O)(=O)Nc3cccc4cnn(C)c34)cn2)c1 [Compound I-140, 1-(4-(1,1-difluoropropyl)pyridin-2-yl)-N-(1-methyl-1H-indazol-7-yl)-1H-pyrazole-4-sulfonamide] |  | > 2500 nM |  | < 400 nM |
| COc1ccc2cnn(C)c2c1NS(=O)(=O)c1cnn(-c2cc(C3(F)CCC3)ccn2)c1 [Compound I-144, 1-(4-(1-fluorocyclobutyl)pyridin-2-yl)-N-(6-methoxy-1-methyl-1H-indazol-7-yl)-1H-pyrazole-4-sulfonamide] |  | ≤ 400 nM |  | < 400 nM |
| Cn1ncc2cccc(NS(=O)(=O)c3cnn(-c4ccccn4)c3)c21 [Compound I-145, N-(1-methyl-1H-indazol-7-yl)-1-(pyridin-2-yl)-1H-pyrazole-4-sulfonamide] |  | > 2500 nM |  | < 400 nM |

— patent US20240150321A1, “PYRAZOLYLSULFONAMIDE COMPOUNDS AND THEIR USE IN THERAPY” (HOTSPOT THERAPEUTICS, INC., priority 2022, published 2024)
